From PMC6198068, “Discovery of a Novel Nav1.7 Inhibitor From Cyriopagopus albostriatus Venom With Potent Analgesic Efficacy” (Frontiers in Pharmacology, 2018)
Read-outs that look alike come from different tables or passages of the source. Where a SMILES comes first, the peptide text is derived from it. Bridges are numbered along the chain shown (N, C = ends).

How the values were obtained:
[1] = test system: acetic acid-induced writhing in mice; type: in vivo, ICR mice; details: counted 30 min, control 27.3 ± 3.3, mean ± SEM, n = 6–8
Procedure: The ICR mice (18–22 g) used in this study were purchased from the Experimental Animal Center of SLac-kinda (Changsha, China). The animals were maintained at 20–25°C and freely allowed to standard rodent chow and water ad libitum. Ethical approval for in vivo experiments in animals was approved by the Animal Care and Use Committee (ACUC) at the Hunan Province Animal Management Office (HPAMO).
The abdominal writhing responses were counted for 30 min continuously.

Nav1.4/Q657E = target: T1, Nav1.4/Q657E (Rattus norvegicus, UniProt P15390, Q657E); experiment: Whole-cell patch-clamp, Nav1.4/Q657E in HEK293T cells; type: cell-based
T1 construct: expressed in transfected cells; host or cells: HEK293T
T1 sequence (P15390 whole entry Q657E): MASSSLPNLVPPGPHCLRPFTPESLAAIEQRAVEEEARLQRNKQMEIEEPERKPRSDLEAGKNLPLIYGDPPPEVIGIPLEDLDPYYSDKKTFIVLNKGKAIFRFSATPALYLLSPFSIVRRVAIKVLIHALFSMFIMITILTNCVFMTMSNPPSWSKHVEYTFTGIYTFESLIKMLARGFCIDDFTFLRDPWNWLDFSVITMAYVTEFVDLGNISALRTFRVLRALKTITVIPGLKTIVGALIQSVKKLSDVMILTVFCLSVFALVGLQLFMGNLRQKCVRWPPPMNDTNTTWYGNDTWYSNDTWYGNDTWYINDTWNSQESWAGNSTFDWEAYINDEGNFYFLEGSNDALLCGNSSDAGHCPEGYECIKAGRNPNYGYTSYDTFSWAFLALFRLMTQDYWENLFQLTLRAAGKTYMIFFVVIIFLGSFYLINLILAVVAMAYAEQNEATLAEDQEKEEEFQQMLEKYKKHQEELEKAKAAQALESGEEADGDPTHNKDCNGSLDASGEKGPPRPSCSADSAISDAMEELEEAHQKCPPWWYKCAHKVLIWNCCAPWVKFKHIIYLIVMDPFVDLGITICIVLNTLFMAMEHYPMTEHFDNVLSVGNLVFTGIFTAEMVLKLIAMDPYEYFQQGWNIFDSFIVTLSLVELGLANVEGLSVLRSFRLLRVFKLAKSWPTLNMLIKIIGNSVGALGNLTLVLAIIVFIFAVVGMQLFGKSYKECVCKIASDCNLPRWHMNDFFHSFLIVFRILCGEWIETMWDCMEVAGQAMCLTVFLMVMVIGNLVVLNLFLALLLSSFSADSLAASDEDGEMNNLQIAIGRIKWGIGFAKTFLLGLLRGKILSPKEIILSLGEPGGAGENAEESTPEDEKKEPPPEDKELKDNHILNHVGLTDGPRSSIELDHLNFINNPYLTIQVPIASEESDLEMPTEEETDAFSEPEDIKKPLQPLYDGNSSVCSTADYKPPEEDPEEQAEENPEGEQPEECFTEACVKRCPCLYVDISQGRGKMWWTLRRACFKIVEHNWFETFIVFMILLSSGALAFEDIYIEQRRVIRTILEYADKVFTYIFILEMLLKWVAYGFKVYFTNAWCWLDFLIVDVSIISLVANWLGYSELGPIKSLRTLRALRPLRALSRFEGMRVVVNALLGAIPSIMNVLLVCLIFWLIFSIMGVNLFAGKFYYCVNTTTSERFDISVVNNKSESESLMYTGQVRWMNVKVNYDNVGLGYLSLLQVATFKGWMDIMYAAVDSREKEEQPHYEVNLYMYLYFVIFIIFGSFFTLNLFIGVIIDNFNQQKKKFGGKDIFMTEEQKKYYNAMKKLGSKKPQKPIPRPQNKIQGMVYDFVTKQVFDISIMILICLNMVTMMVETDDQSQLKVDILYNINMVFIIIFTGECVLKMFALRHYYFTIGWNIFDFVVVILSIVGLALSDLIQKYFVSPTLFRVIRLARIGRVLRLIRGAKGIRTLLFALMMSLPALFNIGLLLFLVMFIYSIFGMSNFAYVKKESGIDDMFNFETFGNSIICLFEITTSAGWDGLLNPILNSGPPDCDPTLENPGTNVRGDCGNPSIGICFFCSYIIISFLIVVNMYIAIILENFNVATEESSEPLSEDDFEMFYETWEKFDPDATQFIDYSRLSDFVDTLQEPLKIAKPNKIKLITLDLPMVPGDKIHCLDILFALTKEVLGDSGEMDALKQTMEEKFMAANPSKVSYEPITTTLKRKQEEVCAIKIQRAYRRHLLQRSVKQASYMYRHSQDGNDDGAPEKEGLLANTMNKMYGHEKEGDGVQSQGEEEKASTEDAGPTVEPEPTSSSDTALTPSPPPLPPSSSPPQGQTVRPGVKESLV
Excerpt: (§1) The cDNA genes encoding rat Nav1.4 and human Nav1.7 were subcloned into vectors pRGB4 and pcDNA3.1-mod, respectively. Mutations of rNav1.4 (N655D, Q657E, and N655D/Q657E) and hNav1.7 (D816N, E818Q, and D816N/E818Q) were constructed using the Gene Tailor Site-Directed Mutagenesis system (Invitrogen, Carlsbad, CA, United States), according to the manufacturer’s instructions. Nav1.2–Nav1.7 and mutant plasmids together with eGFP were transiently transfected into HEK293T cells while Nav1.8 together with eGFP was transiently transfected into ND7/23 cells by Lipofectamine 2000 (Invitrogen, Carlsbad, CA, United States). Additionally, plasmids β1- and β2-eGFP encoding the human β1 and β2 subunits, respectively, were co-transfected with those encoding WT Nav1.7 and Nav1.7 mutations in HEK293T cells. […] Cells with green fluorescent protein fluorescence were selected for whole-cell patch-clamp recordings 24 h after transfection.
(§2) Whole-cell patch-clamp recordings were performed at room temperature (20–25°C) using an EPC 10 USB Patch Clamp Amplifier (HEKA, Elektronik, Lambrecht, Germany). […] Data was analyzed by software Igo Pro 6.10A (WaveMetrics, Lake Oswego, OR, United States), SigmaPlot 10.0 (Sigma-Aldrich, St. Louis, MO, United States), OriginPro 8 (OriginLab Corp., Northampton, MA, United States), and GraphPad Prism 5 (GraphPad Software, San Diego, CA, United States). […]

rat Nav1.4 = target: T2, rat Nav1.4 (Rattus norvegicus, UniProt P15390); experiment: Whole-cell patch-clamp, WT Nav1.4 in HEK293T cells; type: cell-based
T2 construct: expressed in transfected cells; host or cells: HEK293T
T2 sequence (P15390 whole entry): as the sequence (P15390 whole entry Q657E) above, with E657Q counted along it
Excerpt: The cDNA genes encoding rat Nav1.4 and human Nav1.7 were subcloned into vectors pRGB4 and pcDNA3.1-mod, respectively. Mutations of rNav1.4 (N655D, Q657E, and N655D/Q657E) and hNav1.7 (D816N, E818Q, and D816N/E818Q) were constructed using the Gene Tailor Site-Directed Mutagenesis system (Invitrogen, Carlsbad, CA, United States), according to the manufacturer’s instructions. Nav1.2–Nav1.7 and mutant plasmids together with eGFP were transiently transfected into HEK293T cells while Nav1.8 together with eGFP was transiently transfected into ND7/23 cells by Lipofectamine 2000 (Invitrogen, Carlsbad, CA, United States). Additionally, plasmids β1- and β2-eGFP encoding the human β1 and β2 subunits, respectively, were co-transfected with those encoding WT Nav1.7 and Nav1.7 mutations in HEK293T cells. Human Nav1.9 was transfected into ND7/23 cells according to a previous report ([Zhou et al., 2017]). HEK293T and ND7/23 cells were grown under standard tissue culture conditions (5% CO2, 37°C) in Dulbecco’s modified Eagle’s medium (DMEM) supplemented with 10% fetal bovine serum (FBS). Cells with green fluorescent protein fluorescence were selected for whole-cell patch-clamp recordings 24 h after transfection.
Whole-cell patch-clamp recordings were performed at room temperature (20–25°C) using an EPC 10 USB Patch Clamp Amplifier (HEKA, Elektronik, Lambrecht, Germany). Suction pipettes with access resistance of 2.0–3.0 MΩ were made from borosilicate glass capillary tubes (thickness = 0.225 mm) using a two-step vertical microelectrode puller (PC-10; Narishige, Tokyo, Japan). The standard pipet solution contained (in mM): 140 CsCl, 10 NaCl, 1 EGTA, and 10 HEPES (pH 7.4). Bath solution contained (in mM): 140 NaCl, 2 CaCl2, 1 MgCl2, 5 KCl, 20 HEPES (pH 7.4), and 10 glucose. All chemicals were the products of Sigma-Aldrich (St. Louis, MO, United States) and dissolved in water. […] Data was analyzed by software Igo Pro 6.10A (WaveMetrics, Lake Oswego, OR, United States), SigmaPlot 10.0 (Sigma-Aldrich, St. Louis, MO, United States), OriginPro 8 (OriginLab Corp., Northampton, MA, United States), and GraphPad Prism 5 (GraphPad Software, San Diego, CA, United States). […]
(§3) Concentration-response curves were fitted using the following Hill logistic equation: y = fmax − (fmax − fmin)/(1 + (x/IC50)^n), where fmax and fmin, respectively, represent the channel’s maximum and minimum responses to toxins, fmin was set to 0, x represents toxin concentration and n is an empirical Hill coefficient. […] Peak inward currents from steady-state inactivation were normalized by the maximum current amplitude and fit with a Boltzmann equation I = Imin + 1/(1 + exp[Vm − V1/2/k]) where I is the current amplitude measured during the test depolarization, V1/2 is the midpoint of inaction, and k is the slope factor. […]

Nav1.4/N655D = experiment: Whole-cell patch-clamp, Nav1.4/N655D in HEK293T cells; type: cell-based, rat; details: 1 μM, n = 4–5 cells
Excerpt: as §1, §2

Nav1.6 = target: T3, Nav1.6 (Homo sapiens, UniProt Q9UQD0); experiment: Whole-cell patch-clamp, Nav1.6 in HEK293T cells; type: cell-based; details: mean ± SEM
T3 construct: expressed in transfected cells; host or cells: HEK293T
Excerpt: as §1, §2

WT Nav1.7 = target: T4, WT Nav1.7 (Homo sapiens, UniProt Q15858); experiment: Time course of Nav1.7 inhibition and recovery upon washing; type: cell-based; details: 1 μM, n = 4
T4 construct: expressed in transfected cells; host or cells: HEK293T
T4 sequence (Q07699 19-218): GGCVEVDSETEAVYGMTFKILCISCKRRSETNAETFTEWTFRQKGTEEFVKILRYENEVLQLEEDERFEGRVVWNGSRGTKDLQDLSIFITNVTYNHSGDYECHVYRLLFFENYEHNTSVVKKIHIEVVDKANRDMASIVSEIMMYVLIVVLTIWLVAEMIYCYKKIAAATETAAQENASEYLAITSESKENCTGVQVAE
T4 sequence (Q15858 other isoform, or with tags, fused parts or gaps): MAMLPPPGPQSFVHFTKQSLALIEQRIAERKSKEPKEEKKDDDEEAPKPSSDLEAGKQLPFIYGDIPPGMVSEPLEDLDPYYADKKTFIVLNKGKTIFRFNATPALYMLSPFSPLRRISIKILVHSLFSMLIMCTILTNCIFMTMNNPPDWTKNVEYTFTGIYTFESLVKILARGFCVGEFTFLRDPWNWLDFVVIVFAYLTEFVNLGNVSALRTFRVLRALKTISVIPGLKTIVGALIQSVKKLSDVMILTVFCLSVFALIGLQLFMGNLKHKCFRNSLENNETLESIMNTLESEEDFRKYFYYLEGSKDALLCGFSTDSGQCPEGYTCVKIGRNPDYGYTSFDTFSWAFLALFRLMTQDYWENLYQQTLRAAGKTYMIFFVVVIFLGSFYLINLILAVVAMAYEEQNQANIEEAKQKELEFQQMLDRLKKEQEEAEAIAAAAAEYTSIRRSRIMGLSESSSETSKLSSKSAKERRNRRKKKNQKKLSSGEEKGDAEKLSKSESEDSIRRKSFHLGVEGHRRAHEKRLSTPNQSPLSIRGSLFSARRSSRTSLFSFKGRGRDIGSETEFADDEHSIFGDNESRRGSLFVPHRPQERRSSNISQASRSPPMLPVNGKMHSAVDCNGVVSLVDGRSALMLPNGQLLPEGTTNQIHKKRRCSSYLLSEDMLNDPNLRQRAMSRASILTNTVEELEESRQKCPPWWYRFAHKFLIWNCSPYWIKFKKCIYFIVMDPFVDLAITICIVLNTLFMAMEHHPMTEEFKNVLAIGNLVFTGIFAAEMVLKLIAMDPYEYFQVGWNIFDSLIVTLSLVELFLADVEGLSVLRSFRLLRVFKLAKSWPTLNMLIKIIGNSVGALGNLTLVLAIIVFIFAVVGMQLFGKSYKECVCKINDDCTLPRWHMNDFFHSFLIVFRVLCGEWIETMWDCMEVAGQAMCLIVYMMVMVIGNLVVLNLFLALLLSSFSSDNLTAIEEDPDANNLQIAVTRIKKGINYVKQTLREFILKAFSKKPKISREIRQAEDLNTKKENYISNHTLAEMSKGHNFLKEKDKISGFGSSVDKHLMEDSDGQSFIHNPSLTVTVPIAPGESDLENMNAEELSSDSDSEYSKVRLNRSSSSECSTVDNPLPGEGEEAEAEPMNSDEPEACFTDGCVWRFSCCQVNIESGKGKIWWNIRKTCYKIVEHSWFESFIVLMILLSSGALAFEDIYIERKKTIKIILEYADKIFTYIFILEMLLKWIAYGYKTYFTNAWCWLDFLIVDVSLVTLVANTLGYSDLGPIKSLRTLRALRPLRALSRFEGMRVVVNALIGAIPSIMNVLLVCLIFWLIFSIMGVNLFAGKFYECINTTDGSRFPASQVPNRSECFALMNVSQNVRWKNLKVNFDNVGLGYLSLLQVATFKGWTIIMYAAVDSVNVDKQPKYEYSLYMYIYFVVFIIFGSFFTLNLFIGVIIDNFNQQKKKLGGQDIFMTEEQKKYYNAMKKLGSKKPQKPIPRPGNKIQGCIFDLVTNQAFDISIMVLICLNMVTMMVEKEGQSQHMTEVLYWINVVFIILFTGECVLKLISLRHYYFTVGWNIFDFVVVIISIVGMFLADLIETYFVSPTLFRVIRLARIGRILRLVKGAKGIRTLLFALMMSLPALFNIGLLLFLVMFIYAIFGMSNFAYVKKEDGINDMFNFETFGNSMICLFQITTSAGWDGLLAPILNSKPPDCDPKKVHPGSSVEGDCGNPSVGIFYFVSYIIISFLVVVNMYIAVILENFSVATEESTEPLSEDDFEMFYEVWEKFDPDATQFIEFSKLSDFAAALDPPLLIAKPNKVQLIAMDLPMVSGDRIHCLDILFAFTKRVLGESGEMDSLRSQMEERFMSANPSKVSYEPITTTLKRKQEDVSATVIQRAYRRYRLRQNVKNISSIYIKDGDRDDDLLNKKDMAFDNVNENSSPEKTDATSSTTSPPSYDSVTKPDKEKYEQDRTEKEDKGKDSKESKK
T4 sequence (O60939 30-215, further chain): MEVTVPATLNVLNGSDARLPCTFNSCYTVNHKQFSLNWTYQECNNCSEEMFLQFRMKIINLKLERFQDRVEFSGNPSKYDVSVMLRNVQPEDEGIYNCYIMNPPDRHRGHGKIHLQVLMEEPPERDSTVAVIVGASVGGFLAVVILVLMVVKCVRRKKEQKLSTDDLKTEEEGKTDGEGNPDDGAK
Excerpt: as §1, §2

hNav1.7 = target: T5, hNav1.7 (Homo sapiens, UniProt Q15858); experiment: Whole-cell patch-clamp, WT Nav1.7 in HEK293T cells; type: cell-based; details: mean ± SEM
T5 construct: expressed in transfected cells; host or cells: HEK293T
T5 sequence (O60939 30-215): as the sequence (O60939 30-215, further chain) above
T5 sequence (Q15858 other isoform, or with tags, fused parts or gaps): as the sequence (Q15858 other isoform, or with tags, fused parts or gaps) above
T5 sequence (Q07699 19-218, further chain): as the sequence (Q07699 19-218) above
Excerpt: as §1, with “cells. Human Nav1.9 was transfected into ND7/23 cells according to a previous report ([Zhou et al., 2017]).” for “cells.”
as §2, §3

Nav1.8 = experiment: Whole-cell patch-clamp, Nav1.8 in ND7/23 cells; type: cell-based; details: up to 10 μM, depolarization to +20 mV
Excerpt: as §1, §2

Nav1.3 = target: T6, Nav1.3 (Homo sapiens, UniProt Q9NY46); experiment: Whole-cell patch-clamp, Nav1.3 in HEK293T cells; type: cell-based; details: mean ± SEM
T6 construct: expressed in transfected cells; host or cells: HEK293T
Excerpt: as §1, §2

[2] = 1 μM, 50 ms to −10 mV from −100 mV
[3] = whole-cell patch-clamp, n = 4–7 cells per data point

## CC(C)C[C@H](NC(=O)[C@H](CC(=O)O)NC(=O)[C@H](Cc1ccc(O)cc1)NC(=O)[C@H](CCCCN)NC(=O)[C@@H]1CSSC[C@@H]2NC(=O)[C@H](CCCCN)NC(=O)[C@H](CC(=O)O)NC(=O)[C@H](CC(N)=O)NC(=O)[C@H](CO)NC(=O)[C@@H]3CCCN3C(=O)[C@H](CC(N)=O)NC(=O)[C@@H]3CSSC[C@H](NC(=O)[C@H](C(C)C)NC(=O)[C@H](CC(C)C)NC(=O)[C@H](CO)NC(=O)[C@H](CO)NC(=O)[C@H](CO)NC(=O)[C@H](CCCCN)NC(=O)[C@H](CSSC[C@H](NC(=O)[C@H](C)N)C(=O)N[C@@H](CC(C)C)C(=O)NCC(=O)N[C@@H](Cc4ccccc4)C(=O)NCC(=O)N[C@@H](CCC(=O)O)C(=O)N[C@@H](CCCCN)C(=O)N3)NC2=O)C(=O)N[C@@H](CO)C(=O)N[C@@H](CCC(N)=O)C(=O)N[C@@H](CCCCN)C(=O)N[C@@H](Cc2c[nH]cn2)C(=O)N[C@@H](CCCCN)C(=O)N[C@@H](Cc2c[nH]c3ccccc23)C(=O)N1)C(=O)O [Ca2a] (H-ACLGFGEKCNPSNDKCCKSSSLVCSQKHKWCKYDL-OH; disulfide 2-17, 9-24, 16-31 (inferred); N-terminus and C-terminus assumed)
[1]; 50 μg/kg i.p. 15 min prior to 0.8% acetic acid
  writhing numbers: 15.8 ± 2.4
[1]; 100 μg/kg i.p. 15 min prior to 0.8% acetic acid
  writhing numbers: 10.5 ± 2.8
[1]; 200 μg/kg i.p. 15 min prior to 0.8% acetic acid
  writhing numbers: 5.4 ± 2.2
Nav1.4/Q657E; 1 μM, n = 4–5 cells
  inhibition of peak current of Nav1.4/Q657E: significantly inhibited
Nav1.4/Q657E; mean ± SEM, n = 4–5 cells per data point
  IC50: 269 ± 14.9 nM
Rat Nav1.4; 1 μM, HEK293T, n = 4–5 cells
  inhibitory effect on WT Nav1.4: no inhibitory effect
Rat Nav1.4; skeletal isoform Nav1.4 vs Nav1.7
  selectivity for Nav1.7 against Nav1.4: more than 100 fold
Rat Nav1.4; skeletal muscle isoform, whole-cell patch-clamp, HEK293T
  IC50: > 10000 nM
Rat Nav1.4; up to 10 μM, HEK293T
  inhibitory effect on Nav1.4 currents: no inhibitory effects
Nav1.4/N655D
  inhibitory effect on Nav1.4/N655D: no inhibitory effect
Nav1.6; [2]
  decrease of Nav1.6 current amplitude: 78.7 ± 2.9%
Nav1.6; [3]
  IC50: 314 ± 6.3 nM
WT Nav1.7; recovery upon washing with bath solution
  τoff, WT Nav1.7: 295.6 ± 27.5 s
WT Nav1.7
  τon, WT Nav1.7: 18.0 ± 2.5 s
hNav1.7; HEK-293T, 0.2 μM, read-out: inhibition of Nav1.7 current
  inhibition at 0.2 µM: 64.5 ± 2.1%
hNav1.7; HEK-293T, 1 μM, 50 ms depolarization to −10 mV from −100 mV, room temperature, read-out: inhibition on Nav1.7 currents
  inhibition at 1 µM: 87.3 ± 4.4%
hNav1.7; whole-cell patch-clamp, 50 ms to −10 mV from −100 mV, n = 4–7 cells per data point
  IC50: 98.1 ± 3.3 nM
Nav1.8
  inhibitory effect on Nav1.8 currents: no inhibitory effects
Nav1.3; [2]
  decrease of Nav1.3 current amplitude: 67.7 ± 3.8%
Nav1.3; [3]
  IC50: 491.3 ± 3.9 nM
